The species named for data set [1] is Mus musculus. Briefly: Toxicity in mouse by ear irritant test. Format: organism-based. The conditions noted are these: in vivo.
Data set [2] is described as follows: Displacement of [3H]12-O-tetradecanoyl-phorbol-13-acetate from TPA receptor. (In a radioligand displacement assay an active substance lowers the binding of a labelled ligand.)

The structures appear in SMILES notation.

Regarding `C=C[C@@](C)(C/C=C/C(C)(C)O)c1ccc2c3c(c[nH]c13)C[C@@H](CO)NC(=O)[C@H](C(C)C)N2C` [LYNGBYATOXIN C], the Activity entry in data set [1] is “Toxic”. Moreover, in data set [2], the ED50 was 200 nM.

On to `C=C[C@@](C)(CCC(O)C(=C)C)c1ccc2c3c(c[nH]c13)C[C@@H](CO)NC(=O)[C@H](C(C)C)N2C` (some centres undefined) [LYNGBYATOXI B], for which the Activity entry in data set [1] was “Toxic”. This molecule also came in with an ED50 in data set [2] of 2200 nM.

The record behind these values is ChEMBL document CHEMBL1150190, “Lyngbyatoxins B and C, two new irritants from Lyngbya majuscula” (J Nat Prod, 1990).
